Experimental data published in US20080009500A1, “Alpha-helix mimetics and methods relating to the treatment of fibrotic disorders” (priority 2005, published 2008).

How the values were obtained:
[1] = system: TCF/β-catenin transcription; experiment: Bleomycin model in Bat-Gal transgenic mice, X-Gal staining of lung sections (TCF/catenin-driven beta-galactosidase read-out); type: in vivo
Procedure: (§1) Using this murine model of pulmonary fibrosis in transgenic Bat-Gal mice, ICG-001 (5 mg/Kg/day, administered via minipump) blocked >95% of bleomycin-induced TCF/β-catenin transcription.
These mice have a Beta-Galactosidase transgene driven by a TCF/Catenin driven promoter (i.e. a read out for activated Wnt/catenin signaling). The mice were given intratracheal saline or bleomycin and either treated with ICG-001 (5 mgs/Kg/day subcutaneously) or saline as vehicle control. The mice were sacrificed and the lungs sectioned and stained with X-Gal (blue color) A) intratracheal bleo+saline. B) intracheal bleo+ICG-001 C) saline +saline.
The dose was selected because ICG-001 reduces TCF/β-Catenin driven β-Galactosidase expression >95% at 5 mgs/Kg/day.

[2] = system: bleomycin induced fibrosis in C57/B16 mice; experiment: Murine model of bleomycin induced pulmonary fibrosis, lung sections stained for collagen (trichrome), body weight, survival; type: in vivo
Procedure: Murine models of bleomycin induced fibrosis have been developed in order to study fibrotic disease progression.
as §1
There is an absence of airway epithelium in lower left compared to upper left (see arrow heads) and extensive collagen deposition (lower left). On the sixth day, either saline (upper right) or ICG-001 (5 mgs/Kg/day) was administered for 10 days after which the mice were sacrificed and sectioned. Of interest is the upper right (saline treatment) showing lack of normal airway epithelialization, extensive collagen deposition and intra-airway hypercellularity (fibroblasts and inflammatory influx).
The procedures were performed using the animal model as described in Example 2 (FIG. 15), and the sectioned lungs were stained for collagen.

[3] = system: S100A4; experiment: RT-PCR for S100A4 in bleomycin treated mice; type: in vivo; settings: 5 mgs/Kg/day s.c.
Source text: (§2) FIGS. 16 and 17 show RT-PCR data for S100A4 (FIG. 16) and collagen1A2 (FIG. 17), which are increased in the bleomycin treated mice (treated with saline control).

[4] = system: collagen1A2; experiment: RT-PCR for collagen1A2 in bleomycin treated mice; type: in vivo; settings: 5 mgs/Kg/day s.c.
Source text: as §2

[5] = system: IPF patient fibroblasts; experiment: Western blots for S100A4 and E-Cadherin on whole cell lysates of cultured IPF fibroblasts; type: cell-based, human
Procedure: Western blots for S100A4 (also know as FSP-1 or fibroblast specific protein-1) and E-Cadherin were performed on whole cell lysates (FIG. 20).

[6] = system: Aquaporin 5; experiment: Aquaporin 5 immunostaining of lung tissue in the bleomycin animal model; type: in vivo, mice; settings: bleomycin and ICG-001 vs bleomycin alone
Procedure: The aquaporins are water channels expressed in a variety of cell types. Aquaporin 5 is involved in the transportation of water across the apical surface of the alveolar epithelium and the epithelia of the submucosal glands in the upper airway and nasopharynx. (Krane, C. M., P.N.A.S. 98:14192-4, 2001; Yang, F. J. Biol. Chem. 278:32173-80, 2003). Because aquaporin 5 is a marker of Type 1 (differentiated) lung epithelium, its expression was assayed in lung tissue treated with bleomycin (FIG. 22A), bleomycin and ICG-001 (FIG. 22B), and saline (FIG. 22C), using the animal model as described in Example 2 (FIG. 15), and immunostaining with an antibody specific for Aquaporin 5.

[7] = C57/B16 mice, bleomycin 5 days, then 5 mgs/Kg/day for 10 days
[8] = bleomycin and ICG-001 treatment
[9] = IPF patient fibroblasts, RPMI 1640+10% FBS, 2 days

## O=C1[C@H](Cc2ccc(O)cc2)N2C(=O)CCN(C(=O)NCc3ccccc3)[C@H]2CN1Cc1cccc2ccccc12 [ICG-001]
[1]; 5 mgs/Kg/day
  reduction of TCF/β-Catenin driven β-Galactosidase expression: > 95%
[1]; transgenic Bat-Gal mice, 5 mg/Kg/day via minipump
  bleomycin-induced TCF/β-catenin transcription blocked: > 95%
[2]; 5 mg/Kg/day
  mortality: reduced mortality
[2]; 5 mg/Kg/day, judged by mortality, histopathology and endogenous gene expression
  disease progression: not only halted but reversed disease progression
[2]; [7]
  airway appearance in trichrome-stained lung sections: essentially normal
  body weight: regained normal body weight
  collagen levels in lung sections: normal collagen levels
[2]; C57/B16 mice, bleomycin 5 days, then 5 mgs/Kg/day for 10 days, untreated controls did not survive
  survival: survived
[2]; [8]
  alveolar fibrosis (lungs stained for collagen): prevented alveolar fibrosis
  interstitial fibrosis (lungs stained for collagen): prevented interstitial fibrosis
[2]; over the 25 days of treatment
  fibrosis: reversed fibrosis
[3]
  S100A4 message (RT-PCR): reduced essentially to negative control
[4]
  collagen1A2 message (RT-PCR): reduced essentially to negative control
[5]; ATCC IPF cells, RPMI1640+10% FBS, 2 days
  S100A4 expression (whole cell lysates): decreased S100A4 expression
[5]; IPF patient fibroblasts
  E-cadherin expression at the mRNA level: also true at the mRNA level
[5]; [9]
  E-cadherin expression (Western blot, whole cell lysates): increased E-cadherin expression
  S100A4 expression (Western blot, whole cell lysates): decreased S100A4 expression
[6]
  aquaporin 5 expression (immunostaining): greatly increased
